How the values were obtained:
[1] = biological target: 3-phosphoinositide-dependent protein kinase 1 (Homo sapiens) (UniProt O15530); assay: Inhibition of PDK1
[2] = biological target: Tyrosine-protein kinase SYK (Homo sapiens) (UniProt P43405); assay: Inhibition of SYK

IC50 [1] | IC50 [2] | SMILES
> 10 µM | > 10 µM | CC(C)c1n[nH]c(Cl)c1-c1ccnc(Nc2ccc(N3CCC(N(C)C)CC3)cn2)n1 [4-(5-Chloro-3-isopropyl-1H-pyrazol-4-yl)-N-(5-(4-(dimethylamino)piperidin-1-yl)pyridin-2-yl)pyrimidin-2-amine]
> 10 µM | > 10 µM | CC(C)c1[nH]nc(C(F)(F)F)c1-c1ccnc(Nc2ccc(N3CCC(N(C)C)CC3)cn2)n1 [N*6'*-[4-(5-Isopropyl-3-trifluoromethyl-1H-pyrazol-4-yl)-pyrimidin-2-yl]-N*4*,N*4*-dimethyl-3,4,5,6-tetrahydro-2H-[1,3']-bipyridinyl-4,6'-diamine]
